# Key:
# [1] = target: T1, frataxin (Homo sapiens, UniProt Q16595); experiment: Frataxin accumulation in FRDA fibroblasts (FACS, SDS-PAGE/western blot); format: cell-based; parameters: HEK-293 Flp-In cells stably transfected with frataxin^1-210; expressed in transfected cells; conditions: FRDA fibroblasts GM03816; 100 μM; 3 days
# T1 sequence (Q16595 42-210): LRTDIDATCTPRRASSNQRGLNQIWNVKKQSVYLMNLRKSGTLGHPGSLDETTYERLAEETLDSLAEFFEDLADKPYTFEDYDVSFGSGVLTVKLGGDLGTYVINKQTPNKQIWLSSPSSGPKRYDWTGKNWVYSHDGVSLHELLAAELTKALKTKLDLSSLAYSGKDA
# Procedure: Human embryonic kidney HEK-293 cells and Hela cells were maintained in DMEM supplemented with 10% FBS. HEK-293 were transfected with the calcium/phosphate precipitation method, using 20 μg total DNA (10 μg pIRES-frataxin and 10 μg HA-Ub, or corresponding empty vectors) on 10 cm dishes. Hela cells were transfected using Lipofectamine 2000 reagents (Invitrogen), according to manufacturer's instructions. Where indicated, the day after transfection, cells were treated for 16 h with 10 μM proteasome inhibitors, MG132 or Lactacystin, or 50 ng/ml DUB inhibitor Ubiquitin-Aldehyde. […]
# (§1) Cell extracts were prepared in modified RIPA buffer (10 mM sodium phosphate pH7.2, 150 mM NaCl, 1% Na deoxycholate, 0.1% SDS, 1% Np40, 2 mM EDTA) or IP buffer (50 mM Tris-HCl, pH 7.5, 150 mM NaCl, 1% Nonidet P-40, 5 mM EDTA, 5 mM EGTA) supplemented with Complete protease inhibitor cocktail and 2 mM N-Ethylmaleimide (NEM). For immunoblotting, 100 μg of protein extract were separated on 12% SDS-PAGE, blotted onto nitrocellulose membrane and detected with specific antibodies. […] Immunocomplexes were then resolved and analysed by SDS-PAGE. […]
# Cells were collected after the indicated treatments and fixed for 20 minutes in 4% paraformaldehyde at room temperature. […] After washing 3 times with PBS cells were analyzed by flow cytometry (Becton Dickinson). […]
# [2] = system: FRDA cells; experiment: Tolerability by FRDA cells; format: cell-based, human; conditions: among the different ubiquitin-competing molecules
# [3] = system: FRDA fibroblasts GM03816; experiment: Intracellular ATP content in FRDA fibroblasts; format: cell-based, human; conditions: 100 μM, 3 days
# Procedure: FRDA lymphoblasts and fibroblasts were washed twice with ice-cold Dulbecco's Phosphate Buffered Saline (DPBS) and lysed in CelLytic M buffer (Sigma-Aldrich) supplemented with Complete protease inhibitor cocktail, EDTA-free (Roche). Aconitase activity was measured spectrophotometrically at 340 nm by a coupled reaction of aconitase and isocitrate dehydrogenase. The assay reactions contained […] of cell extract in 50 mM Hepes pH 7.4, 1 mM sodium citrate, 0.6 mM MnCl2, 0.2 mM NADP^+ and 2 U/ml isocitrate dehydrogenase (Sigma-Aldrich). Citrate synthase activity was assessed using […] of cell extract with the Citrate Synthase Assay Kit (Sigma-Aldrich CS0720). […] The intracellular ATP content was measured in black microtiter plates using […] of cell extract with the ATP Bioluminescence Assay Kit CLS II (Roche) according to the manufacturer's protocol.
# FRDA fibroblasts GM03816 were treated for 3 days with 100 μM Formula IV. Cells were then fixed, stained with anti-frataxin antibody or anti-Bcl2, as a control, and analyzed by flow cytometry. […] Total cell extracts were resolved on SDS-PAGE and analyzed with anti-frataxin antibody, or anti-tubulin, as a loading control. […] ATP levels were quantitated as described previously.
# [4] = system: aconitase; experiment: Aconitase assay in FRDA lymphoblasts; format: cell-based, human; conditions: FRDA lymphoblasts GM16798; 50 μM; 6 days
# Procedure: (§2) FRDA lymphoblasts and fibroblasts were washed twice with ice-cold Dulbecco's Phosphate Buffered Saline (DPBS) and lysed in CelLytic M buffer (Sigma-Aldrich) supplemented with Complete protease inhibitor cocktail, EDTA-free (Roche). Aconitase activity was measured spectrophotometrically at 340 nm by a coupled reaction of aconitase and isocitrate dehydrogenase. The assay reactions contained […] of cell extract in 50 mM Hepes pH 7.4, 1 mM sodium citrate, 0.6 mM MnCl2, 0.2 mM NADP^+ and 2 U/ml isocitrate dehydrogenase (Sigma-Aldrich). Citrate synthase activity was assessed using […] of cell extract with the Citrate Synthase Assay Kit (Sigma-Aldrich CS0720). The aconitase activities were normalized with respect to citrate synthase ratios; one milliunit of enzyme was defined as the amount of protein that converted 1 nmol of NADP^+ in 1 min at 25° C. The intracellular ATP content was measured in black microtiter plates using […] of cell extract with the ATP Bioluminescence Assay Kit CLS II (Roche) according to the manufacturer's protocol.
# (§3) FRDA lymphoblasts GM16798 were left untreated or treated for 6 days with 50 μM Formula IV. Their genetically-related healthy control GM16241 lymphoblasts were left untreated. […] Aconitase activity and ATP levels were measured as described previously.
# [5] = target: T1, frataxin; experiment: Frataxin accumulation in HEK-293 Flp-In cells stably expressing frataxin 1-210 (WB, FACS); format: cell-based; parameters: HEK-293 Flp-In cells stably transfected with frataxin^1-210; expressed in transfected cells; conditions: HEK-293 Flp-In frataxin 1-210; 100 μM; 18 hours
# Procedure: (§4) Human embryonic kidney HEK-293 cells and Hela cells were maintained in DMEM supplemented with 10% FBS. HEK-293 were transfected with the calcium/phosphate precipitation method, using 20 μg total DNA (10 μg pIRES-frataxin and 10 μg HA-Ub, or corresponding empty vectors) on 10 cm dishes. Hela cells were transfected using Lipofectamine 2000 reagents (Invitrogen), according to manufacturer's instructions. Where indicated, the day after transfection, cells were treated for 16 h with 10 μM proteasome inhibitors, MG132 or Lactacystin, or 50 ng/ml DUB inhibitor Ubiquitin-Aldehyde. Flp-In-HEK-293 cells (Invitrogen) are HEK-293 variants allowing the stable and isogenic integration and expression of a transfected gene. Flp-In-HEK-293 cells were maintained in DMEM supplemented with 10% FBS and transfected with the calcium/phosphate precipitation method. Briefly, cells were plated on 10 cm dishes and transfected with 10 μg total DNA. The HEK-293 clone stably expressing frataxin^1-210 was previously described (4). The HEK-293 clone stably expressing frataxin^K147R was obtained from cultures in selection medium containing 100 μg/ml hygromycin B (Invitrogen). FRDA lymphoblasts GM15850, GM16798 and GM16241, as well control lymphoblasts GM15851, GM16241 and GM16215, were maintained in RPMI supplemented with 15% FBS. Treatments with specific ubiquitin-competing molecules were performed in 20% FBS containing medium. FRDA fibroblasts GM03816 were maintained in DMEM supplemented with 15% FBS.
# Cell extracts were prepared in modified RIPA buffer (10 mM sodium phosphate pH7.2, 150 mM NaCl, 1% Na deoxycholate, 0.1% SDS, 1% Np40, 2 mM EDTA) or IP buffer (50 mM Tris-HCl, pH 7.5, 150 mM NaCl, 1% Nonidet P-40, 5 mM EDTA, 5 mM EGTA) supplemented with Complete protease inhibitor cocktail and 2 mM N-Ethylmaleimide (NEM). For immunoblotting, 100 μg of protein extract were separated on 12% SDS-PAGE, blotted onto nitrocellulose membrane and detected with specific antibodies. For in vivo detection of ubiquitin-conjugates […] and 50 ng/ml Ubiquitin-Aldehyde were added to the lysis buffer. For immunoprecipitation, 5 mg of total protein extract prepared as above were incubated for 1-2 h at 4° C. with specific antibodies, previously conjugated to Protein G-sepharose (GE Healthcare). Immunocomplexes were then resolved and analysed by SDS-PAGE. […] Densitometric analysis was performed using ImageJ software.
# Cells were collected after the indicated treatments and fixed for 20 minutes in 4% paraformaldehyde at room temperature. Cells were then permeabilized and blocked in a blocking solution (3% FBS in PBS) containing 0.2% Triton, for 1 hour at room temperature. Cells were then incubated overnight at 4° C. with anti-frataxin monoclonal antibody (MAB-10485, Immunological Science) or anti-Bcl2 monoclonal antibody (sc-509, Santa Cruz) diluted 1:200 in blocking solution. Cells were then washed 3 times in PBS and incubated for 1 hour at room temperature with FITC-conjugated goat anti-mouse IgG/IgM (BD Bioscience Pharmingen) diluted 1:200 in blocking solution. After washing 3 times with PBS cells were analyzed by flow cytometry (Becton Dickinson).
# HEK-293 Flp-In cells stably transfected with frataxin^1-210 were treated for the indicated times with 10 μM MG132. Total cell extracts were blotted as in A. One representative experiment out of four performed with similar results is shown in FIG. 18.
# Formula III induces frataxin precursor accumulation. HEK-293 Flp-In cells stably expressing frataxin^1-210 were treated for the indicated days with 20 μM of Formula III or 10 μM MG132. Total cell extracts were resolved on SDS-PAGE and analyzed with anti-frataxin antibody, or anti-tubulin, as a loading control.
# Formula III induces mature frataxin accumulation. HEK-293 Flp-In cells stably expressing frataxin^1-210 were treated and analyzed as in B. One representative experiment out of three performed with similar results is shown FIG. 5C. […]
# [6] = target: T1, frataxin; experiment: Frataxin accumulation in FRDA lymphoblasts (FACS, SDS-PAGE/western blot); format: cell-based; conditions: 50 μM, 6 days
# Procedure: as §4, with “The HEK-293 clone stably expressing frataxin^K147R was obtained from cultures in selection medium containing 100 μg/ml hygromycin B (Invitrogen). FRDA lymphoblasts GM15850, GM16798 and GM16241, as well control lymphoblasts GM15851, GM16241 and GM16215, were maintained in RPMI supplemented with 15% FBS. Treatments with specific ubiquitin-competing molecules were performed in 20% FBS containing medium. FRDA fibroblasts GM03816 were maintained in DMEM supplemented with 15% FBS.” left out
# as §1
# Cells were collected after the indicated treatments and fixed for 20 minutes in 4% paraformaldehyde at room temperature. […] After washing 3 times with PBS cells were analyzed by flow cytometry (Becton Dickinson).
# FRDA lymphoblasts GM15850 were cultured for 6 days in the presence of 50 μM Formula IV or Formula VI. Cells were then fixed, stained with anti-frataxin antibody or anti-Bcl2, as a control, and analyzed by flow cytometry. […]
# [7] = system: FRDA lymphoblasts GM16798; experiment: Intracellular ATP content in FRDA lymphoblasts; format: cell-based, human; conditions: 50 μM, 6 days
# Procedure: as §2, §3
structure (smiles),measurement,setting,value
O=[N+]([O-])c1cccc(/C=N/NS(=O)(=O)c2ccc(Cl)cc2)c1O [Formula IV],frataxin accumulation by FACS and SDS-PAGE/western blot,[1],frataxin accumulation can be detected as early as 3 days of treatment
same,tolerability by FRDA cells,[2],best tolerated
same,ATP levels,[3],Rescue of ATP levels can also be achieved
same,aconitase activity,[4],significantly boost
same,frataxin accumulation by WB and FACS analysis,[5],effective in inducing frataxin accumulation
same,accumulation of mature frataxin by SDS-PAGE and western blot,"[6]; FRDA lymphoblasts GM15850, GM16798 and GM16214",accumulation of mature frataxin can be detected
same,frataxin accumulation by FACS analysis,[6]; FRDA lymphoblasts GM15850,discrete frataxin accumulation detectable in all cells
same,ATP levels,[7],significantly boost
